Values joined by “and” are separate entries in the source; they are usually repeats but may differ in a detail not shown here. Equal values may be shown once. Non-standard residues stand in square brackets, D forms with d. Residues, ends and D or L forms follow the SMILES beside them. No end group written: not given here. Dmt = Cc1cc(O)cc(C)c1C[C@H](N)C(=O)O
Experiments:
[1] = tested on: Retinal Nerve Fiber Layer (RNFL) and Inner Plexiform Layer (IPL); assay: Sequential administration study, OCT thickness of RNFL and IPL after US-TON (SI-TON), Example 4; format: in vivo, mice; conditions: four weeks after treatments
Experimental: (§1) The sequential administration study was conducted as depicted in FIG. 4. A baseline visual function of retinal ganglion cells (RGCs) was obtained using pattern electroretinography (PERG) to record the electrical activity of RGCs, Optical Coherence Tomography (OCT) to evaluate the thickness of the Retinal Nerve Fiber Layer (RNFL), and Heidelberg Retina Topography (HRT) to evaluate subtle changes in the optic nerve caused by trauma. At day zero, US-TON (SI-TON) was induced by a microtip probe sonifier placed on the supraorbital ridge directly above the entrance of the optic nerve into the bony canal, as described in Example 2.
(§2) On the first day, six mice were administered either a bolus subcutaneous injection of 3 mg/kg ([…]) Etanercept (Enbrel™, Groups 1 and 2), 10 mg/kg (300 μg per 30 g mouse) D-Arg-2′6′-Dmt-Lys-Phe-NH2(MTP-131, Groups 3 and 4), or PBS (Groups 5 and 6), followed by daily injections of the drug formulation for a period of 3 days. On the sixth day, Groups 1 and 2 were administered a bolus subcutaneous injection of 10 mg/kg (300 μg per 30 g mouse) D-Arg-2′6′-Dmt-Lys-Phe-NH2; Groups 3 and 4 were administered a bolus subcutaneous injection of 3 mg/kg ([…]) Etanercept; and Groups 5 and 6 received PBS, followed by daily injections of the drug formulation for three days. […]

[2] = tested on: retinal ganglion cells (RGCs); assay: Sequential administration study, PERG after US-TON (SI-TON), Example 4; format: in vivo, mice; conditions: 5 mg/kg 4-AP added to any formulation from two weeks post-injury, two and four weeks post treatment
Experimental: as §1, §2

[3] = tested on: subjects suspected of having or diagnosed as having TON; assay: Treatment of subjects with TON, Example 1 (predicted); format: in vivo; conditions: for effect in combination with one or more additional therapeutic agents: compared with peptide or additional agent alone, expected; for severity of symptoms associated with TON: daily 1 mg/kg body weight, predicted
Experimental: Subjects suspected of having or diagnosed as having TON receive daily administrations of 1 mg/kg body weight of aromatic-cationic peptide, such as 2′6′-Dmt-D-Arg-Phe-Lys-NH2, Phe-D-Arg-Phe-Lys-NH2, or D-Arg-2′6′-Dmt-Lys-Phe-NH2, or a pharmaceutically acceptable salt thereof (such as an mono, bis, or tri-acetate salt, a tartrate salt, a fumarate salt, a mono, bis, or tri-HCl salt, a mono, bis, or tri-tosylate salt, or a mono, bis, or tri-trifluoroacetate salt) alone or in combination with one or more additional therapeutic agents for the treatment or prevention of TON. Peptides and/or additional therapeutic agents are administered orally, topically, systemically, intravenously, subcutaneously, intravitreally, intraperitoneally, or intramuscularly according to methods known in the art. Subjects will be evaluated weekly for the presence and/or severity of signs and symptoms associated with TON including, but not limited to, e.g., vision loss, blurred vision, RGC damage, scotoma, decreased color sensation, uveitis, optic neuritis, eye pain, optic nerve avulsion, optic nerve transection, optic nerve sheath hemorrhage, orbital hemorrhage, choroidal rupture, and commotio retinae. Treatments are maintained until such a time as one or more signs or symptoms of TON are ameliorated or eliminated.

[4] = tested on: retinal ganglion cells (RGCs); assay: Safety and efficacy of acute intravitreal administration, PERG before and after SI-TON, Example 5; format: in vivo, C57BL/6 J mice
Experimental: To determine the safety of acute intravitreal administration of aromatic-cationic peptides in vivo, SI-TON was induced in 3-month-old C57BL/6 J mice with a Branson Digital Sonifier 450 (Branson) by a 3 mm microtip probe (Branson) in an acoustic soundproof enclosure chamber, as described in Example 2. Fifteen minutes following the induction of TON, a group of ten mice were administered 1.3 μL of 100 nM D-Arg-2′6′-Dmt-Lys-Phe-NH2 (MTP-131) intravitreally in the left eye (OS, treated). A different subset of mice was administered control PBS solution intravitreally in the left eye (OS, treated) followed by subcutaneous injection with 5 mg/kg D-Arg-2′6′-Dmt-Lys-Phe-NH2 fifteen minutes post-injury. A baseline recording of the mice visual function was recorded using electrophysiological recording of RGCs through PERG prior to SI-TON induction and the functional visual outcome of the mice was tested again 4 weeks post-injury.

[5] = tested on: several mammalian cell types; conditions: energy-independent manner; cited from earlier work
[6] = tested on: retinal ganglion cells (RGC); assay: RGC survival in optic nerve crush-induced TON (ONC-TON) model, Example 2; format: in vivo, rat; conditions: two weeks following injury, early use, peptide 2 mg/kg SQ for 7 days
Excerpt: ONC-TON is induced by exposing the optic nerve of an adult rat and creating a small opening in the meninges of the nerve, as described in Solomon, A. et al., J. of Neurosci. Methods (1996) 70: 21-25, (incorporated herein by reference). The opening is created about 2-3 mm behind the eye globe. A glass dissector is introduced through the opening and is used to cut all the axons through the whole width of the nerve. Complete […] of the optic nerve axons is achieved, while retaining the continuity of the meninges and avoiding damage to the nerve's vascular supply. Transection can be confirmed by transillumination showing a complete gap in the continuity of the nerve axons, and by both morphological and electrophysiological criteria. The opening created in the ‘meningeal tube’ can be used to inject substances that may be of benefit in recovery, rescue and/or regeneration of the injured axons. […]
(§3) A baseline recording of visual function by pattern electroretinogram (PERG) and imaging of the optic disc was performed prior to inducing SI-TON or ONC-TON. […] Euthanized animals were evaluated for RGC dropout by flat mount. […]
To test if a combinatorial strategy results in improved visual outcomes, a therapeutic agent, such as a TNF-alpha inhibitor (e.g., etanercept), D-Arg-2′6′-Dmt-Lys-Phe-NH2, or a combination of these pharmaceutical agents was assessed. […]

[7] = tested on: retinal ganglion cells (RGC); assay: RGC survival in sonication-induced TON (SI-TON) model, Example 2; format: in vivo, mice; conditions: two weeks following injury, early use, peptide 2 mg/kg SQ for 7 days
Excerpt: SI-TON is induced by a microtip probe sonifier placed on the supraorbital ridge directly above the entrance of the optic nerve into the bony canal, as described in Tao, W. et al., Scientific Reports (2017) 7: 11779 (incorporated herein by reference). An ultrasonic pulse is then delivered to the optic nerve. After injury, the number of RGCs in the retina as well as visual function measured by PERG steadily decrease over a two-week period. […] The SI-TON model is capable of delivering a non-contact concussive injury to the optic nerve and induce TON in mice.
Two models for TON were utilized in this example: a novel sonication-induced TON (SI-TON) that closely recapitulates the clinical manifestations of indirect TON, and optic nerve crush-induced TON (ONC-TON) which reflects a more severe form of TON often resulting in axotomized nerve fibers and ruptured nervous vasculature. […]
as §3
To test if a combinatorial strategy results in improved visual outcomes, a therapeutic agent, such as a TNF-alpha inhibitor (e.g., etanercept), D-Arg-2′6′-Dmt-Lys-Phe-NH2, or a combination of these pharmaceutical agents was assessed. […] Euthanized animals were evaluated for RGC dropout by flat mount. […]

Nc1ccncc1 [4-AP, 4-aminopyridine]
RNFL and IPL thickness by OCT [1]: did not significantly improve | RGC electrical activity measured by PERG [2]: significantly increased RGC electrical activity

F[dR]FK-NH2
effect in combination with one or more additional therapeutic agents [3]: synergistic effects | severity of symptoms associated with TON [3]: reduced severity or elimination of one or more symptoms associated with TON

Cc1cc(O)cc(C)c1C[C@H](NC(=O)[C@H](N)CCCNC(=N)N)C(=O)N[C@@H](CCCCN)C(=O)N[C@@H](Cc1ccccc1)C(N)=O [D-Arg-2′6′-Dmt-Lys-Phe-NH2] (H-[dR][Dmt]KF-NH2)
safety of direct application to the eye ([4]; acute intravitreal injection, 1.3 μL of 100 nM): did not show evidence of toxicity | baseline electrophysiological recording of RGCs (PERG), treated vs control ([4]; uninjured baseline, left eye): substantially similar

2′6′-Dmt-D-Arg-Phe-Lys-NH2
penetration of the plasma membrane [5]: readily penetrates the plasma membrane | effect in combination with one or more additional therapeutic agents [3]: synergistic effects | severity of symptoms associated with TON [3]: reduced severity or elimination of one or more symptoms associated with TON

etanercept
percent RGC survival [6]: 48.94% and 48.94±1.94% | percent RGC survival [7]: 97.08% and 97.08±2.21%

Reference: patent US20210330735A1, “COMPOSITIONS AND METHODS FOR THE TREATMENT OF TRAUMATIC OPTIC NEUROPATHY” (Stealth BioTherapeutics Corp, priority 2018, published 2021)
